Where a name gives a salt, the structure may show the parent alone.
Key:
sweat glands = experiment: rat foot pad sweat inhibition (starch-iodine count of secreting sweat glands, test foot vs control foot); type: in vivo, Sprague Dawley rats; conditions: for Approx. % Inhibition: topical, rat hind foot pads, 40 minutes post treatment
Experimental: A series of test solutions were prepared by dissolving various quantities of xylometazoline HCl, oxymetazoline HCl and naphazoline HCl in freshly prepared distilled water. In the case of xylometazoline HCl 0.003%, 0.03%, 0.15% and 0.3% solutions were prepared. In the cases for oxymetazoline HCl and naphazoline HCl 0.15% solutions were made. The control material is distilled water.
A. Prior to testing, rats are routinely acclimated to the laboratory environment for seven days and gross observations are made to ensure good health of animals to be tested.
B. Sprague Dawley rats, male and/or female (175-250 gm) are selected for test and identified by cage label and ear tag number.
C. A minimum of 6 animals is used in testing each solution.
A. Test room should be maintained at a temperature of 78°±2° F.
1. Test animals are injected intramuscularly with Innovar Vet™ (0.01 ml/100 gm body wt.) by use of a 0.25 ml tuberculin syringe with a 26 or 27 gauge needle. Animals are then returned to their cages.
3. Both hind feet are then swabbed with 70% ethyl alcohol (ETOH) to remove any debris.
4. The four interdigital palmar foot pads on one hind foot are then treated with test material while the opposite hind foot is treated with the control material.
5. After treatment of all animals, an iodine solution (2% in 95% ETOH wt./vol.) is applied to both hind feet.
6. 30 minutes post treatment the hind feet are then painted with a suspension of starch and castor oil (50/50, wt./vol.).
7. 40 minutes post treatment Polaroid photos (3X, using Polaroid Type Film 669) are taken of both hind feet in the same frame.
1. The number of activated sweat glands in each of the four palmar foot pads is quantitated by manually counting the black dots observed in the photo of the control and test treated feet.
2. The ratio of the total number of secreting sweat glands on the control foot vs the total number of secreting sweat glands on the test foot is used to estimate the percent inhibition of sweat in the rat foot pad.
3. The following formula is used to calculate activity. [formula]

[1] = test system: single equine sweat glands; conditions: cited from earlier work

Row | Compound | Approx. % Inhibition (sweat glands; Concentration Tested 0.15%) [%] | sweating responses [1] | also measured
1 | c1ccc2c(CC3=NCCN3)cccc2c1 [Naphazoline HCl, naphazoline HCl] | ~95 | – | –
2 | Cc1cc(C(C)(C)C)c(O)c(C)c1CC1=NCCN1 [Oxymetazoline HCl, oxymetazoline HCl] | ~92 | – | –
3 | Cc1cc(C(C)(C)C)cc(C)c1CC1=NCCN1 [Xylometazoline HCl, xylometazoline HCl] | ~80 | – | dose response of percent inhibition (sweat glands; 0.003-0.3% solutions): the percent inhibition increased with the increase in concentration of the test drug; Approx. % Inhibition (sweat glands; Concentration Tested 0.003%): ~30%; Approx. % Inhibition (sweat glands; Concentration Tested 0.03%): ~50%; Approx. % Inhibition (sweat glands; Concentration Tested 0.3%): ~88%
4 | COc1ccc(OC)c(C(O)C(C)N)c1 (stereo not drawn) [methoxamine] | – | moderate sweating responses | –
5 | CNC[C@H](O)c1cccc(O)c1 [phenylephrine] | – | moderate sweating responses | –

— patent publication US4737361A, “Alpha adrenergic amine of substantial alpha2 adrenergic amine activity as an antiperspirant” (Bristol-Myers Company, priority 1986, dated 1988)
